Where two headings read alike, the source gives them in different places.
How the values were obtained:
[1] = molecular target: T1, α1G T-type calcium channel (Homo sapiens, UniProt O43497); test: Assay for % inhibiting activity against T-type calcium channel using FDSS6000 (fluo-3 calcium imaging, KCl activation); format: cell-based
T1 construct: host or cells: HEK293
Protocol: In the present invention, in order to examine an efficient inhibitor against the T-type calcium channel, a primary assay for T-type calcium channel inhibiting activity was conducted by a high-efficient assay using FDSS6000, wherein mammal HEK293 cell lines (originated from human kidney carcinoma cells) that specifically express α1G of the T-type calcium channel was used for primary assay. Through the primary assay, compounds that show meaningful inhibition effects were selected. The selected compounds were used in a second assay for T-type calcium channel inhibiting activity using an electrophysiological whole cell patch clamp method, wherein mammal HEK293 cell lines (originated from human kidney carcinoma cells) that specifically express α1G of the T-type calcium channel was used for the second assay. Mibefradil, which had been developed as a T-type calcium channel inhibitor, was used as a reference.
At 12-24 hours before being used for this assay, cells of HEK293 cell line (α1G cell line: KCTC 10519BP, Korean Collection for Type Cultures), which stably express α1G T-type calcium channel and Kir2.1, were sub-cultured in a poly-L-lysine treated 96-well plate with the density of 4×10^4 per well using a 96-well cell dispenser (Titertek). On the day of assay, the 96-well plate to which the cells were attached was washed three times with HEPES buffer solution (150 mM of NaCl, 5 mM of KCl, 1 mM of MgCl2, 2 mM of CaCl2, 10 mM of HEPES, 10 mM of glucose; pH 7.4) using a 96-well plate automatic washing device (Bio Tek), then reacted with HEPES buffer solution containing 5 μM fluo-3/AM and 0.001% Pluronic F-127 at room temperature for 1 hour, to label with fluorescent dye, and then further washed two times with HEPES buffer solution.
Thereafter, at 10 minutes before the measurement using device FDSS6000, washing with HEPES buffer solution containing 10 mM CaCl2 was conducted once more, and the final volume was adjusted to 81 μl. Besides the above 96-well plate containing the cells, two additional drug 96-well plates were provided, wherein the 96-well plates contained an inhibiting drug and KCl (final concentration: 75 mM) for activating the T-type calcium channel, respectively. Since most of cell-based HTS devices are equipped with a liquid application system for injection of drug, but have no liquid sucking system, the inhibiting drug to be tested and KCl were respectively provided at a five-times higher concentration in 10 mM CaCl2 HEPES buffer solution at the amount of 27 μl, diluted by five-times at the final cell plate volume of 135 μl, and then used in this test. The concrete method of measurement using FDSS6000 was as follows. After recording the reference value of 20 seconds, the change of intracellular Ca^2+ concentration that was induced by treatment of the inhibiting drug to be tested for 75 seconds followed by administration of KCl was measured, wherein the percentage (%) inhibition effect of the test drug, through estimating the area of ratio value of 340/380 in the control without treatment of the test drug, was 100%. As a reference drug, 10 μM mibefradil was used.
For accurate calcium imaging, the light source of 4 xenon lamps in FDSS6000 were radiated to selectively expose the cells to the excitation wavelength (340 nm and 380 nm) by a computer-controlled filter wheel. Data was obtained at intervals of 1.23 seconds. The emitter fluorescence light inflowed through a long-pass filter was obtained as an average 340/380 ratio value for each well in the 96-wells by using a CCD camera and a digital fluorescence analyzer in FDSS6000. All image data and analyses were obtained by using a FDSS6000-exclusive program from Hamamatsu Photonics.
The obtained results are shown in Table 2 (the results from the compounds according to the examples of the present invention) and Table 3 (the results from the compounds according to the comparative example where R6 is a phenyl group) [FDSS (% inhibition) 10 μM].

[2] = HEK293, 10 μM, HEK293 cells stably expressing α1G T-type calcium channel and Kir2.1, compounds of the examples, read-out: FDSS (% inhibition)/10uM
[3] = 10 μM, FDSS (% inhibition), comparative compounds where R6 is a phenyl group, read-out: FDSS

T1 sequence (O43497 whole entry): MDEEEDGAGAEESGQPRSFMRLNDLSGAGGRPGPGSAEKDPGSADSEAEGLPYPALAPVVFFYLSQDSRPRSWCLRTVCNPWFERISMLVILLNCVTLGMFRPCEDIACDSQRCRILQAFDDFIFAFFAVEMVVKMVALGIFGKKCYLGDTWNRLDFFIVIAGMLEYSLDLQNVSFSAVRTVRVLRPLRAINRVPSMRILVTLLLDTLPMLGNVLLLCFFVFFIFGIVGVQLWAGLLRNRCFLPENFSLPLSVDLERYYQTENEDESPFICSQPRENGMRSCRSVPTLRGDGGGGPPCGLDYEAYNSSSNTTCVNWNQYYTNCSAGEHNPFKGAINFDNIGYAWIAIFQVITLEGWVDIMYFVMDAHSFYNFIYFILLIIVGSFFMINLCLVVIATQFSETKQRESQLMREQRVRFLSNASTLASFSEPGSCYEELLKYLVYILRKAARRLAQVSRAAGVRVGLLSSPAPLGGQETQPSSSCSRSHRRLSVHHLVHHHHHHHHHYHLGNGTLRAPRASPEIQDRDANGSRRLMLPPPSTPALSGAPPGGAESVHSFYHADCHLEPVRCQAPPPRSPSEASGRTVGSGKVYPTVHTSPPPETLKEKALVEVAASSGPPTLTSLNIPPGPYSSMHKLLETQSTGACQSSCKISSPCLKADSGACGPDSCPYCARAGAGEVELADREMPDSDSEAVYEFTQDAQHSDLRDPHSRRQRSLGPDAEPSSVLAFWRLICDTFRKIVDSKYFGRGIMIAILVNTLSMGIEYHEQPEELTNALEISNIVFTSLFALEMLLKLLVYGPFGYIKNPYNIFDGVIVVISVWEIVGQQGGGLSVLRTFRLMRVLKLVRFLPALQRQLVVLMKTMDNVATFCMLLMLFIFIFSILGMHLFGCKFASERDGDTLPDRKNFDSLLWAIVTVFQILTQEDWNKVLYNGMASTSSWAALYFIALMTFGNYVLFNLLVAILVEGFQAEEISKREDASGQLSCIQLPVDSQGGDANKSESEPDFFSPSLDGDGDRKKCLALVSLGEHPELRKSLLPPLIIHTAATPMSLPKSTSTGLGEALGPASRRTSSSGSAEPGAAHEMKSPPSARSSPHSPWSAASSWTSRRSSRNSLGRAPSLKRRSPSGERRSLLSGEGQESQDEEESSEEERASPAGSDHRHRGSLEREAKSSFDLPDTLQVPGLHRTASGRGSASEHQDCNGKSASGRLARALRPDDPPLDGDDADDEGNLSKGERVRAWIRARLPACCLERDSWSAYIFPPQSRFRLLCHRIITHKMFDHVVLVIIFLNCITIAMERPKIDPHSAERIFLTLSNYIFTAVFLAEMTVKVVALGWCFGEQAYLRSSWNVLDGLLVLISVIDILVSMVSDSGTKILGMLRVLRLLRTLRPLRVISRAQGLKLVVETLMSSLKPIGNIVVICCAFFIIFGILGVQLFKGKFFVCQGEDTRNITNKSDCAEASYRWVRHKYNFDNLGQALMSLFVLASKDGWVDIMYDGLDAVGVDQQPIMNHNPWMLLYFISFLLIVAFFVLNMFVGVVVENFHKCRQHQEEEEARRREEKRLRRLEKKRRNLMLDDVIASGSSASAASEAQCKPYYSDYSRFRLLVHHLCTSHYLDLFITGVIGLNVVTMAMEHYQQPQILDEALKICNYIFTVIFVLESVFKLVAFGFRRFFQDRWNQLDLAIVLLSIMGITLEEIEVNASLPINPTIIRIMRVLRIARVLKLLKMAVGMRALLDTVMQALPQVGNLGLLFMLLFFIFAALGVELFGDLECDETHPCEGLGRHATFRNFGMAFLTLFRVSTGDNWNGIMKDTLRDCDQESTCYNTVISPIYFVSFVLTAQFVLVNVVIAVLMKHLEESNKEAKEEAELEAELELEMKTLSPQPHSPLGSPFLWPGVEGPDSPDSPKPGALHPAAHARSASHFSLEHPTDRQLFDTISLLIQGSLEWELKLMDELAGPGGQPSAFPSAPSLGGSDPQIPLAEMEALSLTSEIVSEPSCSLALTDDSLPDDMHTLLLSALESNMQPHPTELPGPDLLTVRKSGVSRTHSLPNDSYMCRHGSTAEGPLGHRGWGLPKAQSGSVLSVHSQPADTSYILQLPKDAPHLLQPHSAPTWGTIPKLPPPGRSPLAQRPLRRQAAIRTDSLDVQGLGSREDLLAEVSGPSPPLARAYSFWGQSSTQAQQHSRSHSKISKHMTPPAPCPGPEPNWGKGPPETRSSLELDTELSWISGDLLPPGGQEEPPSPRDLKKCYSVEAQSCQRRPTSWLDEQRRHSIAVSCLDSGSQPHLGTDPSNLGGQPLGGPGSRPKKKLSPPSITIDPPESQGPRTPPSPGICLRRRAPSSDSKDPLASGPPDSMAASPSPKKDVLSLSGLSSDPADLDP

| SMILES | inhibition at 10 µM [1, 2] | melting point | inhibition at 10 µM [1, 3] | FDSS (% inhibition)/10uM ([1]; 10 μM, HEK293 cells stably expressing α1G T-type calcium channel and Kir2.1, compounds of the examples) |
| --- | --- | --- | --- | --- |
| CCCCc1ccc(NC(=O)CC2CSC(=NC34CC5CC(CC(C5)C3)C4)N2CCCC)cc1.Cl (stereo not drawn) [KHG24776, [2-(1-adamantylimino)-3-(n-butyl)-1,3-thiazolidine-4-yl]-N-(4-n-butylphenyl)-acetamide hydrochloride] | 33.8% | 169 °C | – | – |
| CCc1ccc(NC(=O)CC2CSC(=NC34CC5CC(CC(C5)C3)C4)N2C(C)C)cc1.Cl (stereo not drawn) [KHG24832, [2-(1-adamantylimino)-3-isopropyl-1,3-thiazolidine-4-yl]-N-(4-ethylphenyl)-acetamide hydrochloride] | 46.5% | 171 °C | – | – |
| CN1C(=NC2CCCCCC2)SCC1C(=O)NCc1ccc(Cl)c(Cl)c1.Cl (stereo not drawn) [KHG24338, (2-cycloheptylimino-3-methyl-1,3-thiazolidine-4-yl)-N-(3,4-dichlorobenzyl)-carboxamide hydrochloride] | 70.8% | 218 to 219 °C | – | – |
| CCCCN1C(=NC23CC4CC(CC(C4)C2)C3)SCC1CC(=O)Nc1ccc(Cl)cc1.Cl (stereo not drawn) [KHG24775, [2-(1-adamantylimino)-3-(n-butyl)-1,3-thiazolidine-4-yl]-N-(4-chlorophenyl)-acetamide hydrochloride] | 62.9% | 158 °C | – | – |
| CC1SC(=NC2CCCCC2)N(C)C1CC(=O)Nc1ccc(Cl)cc1 (stereo not drawn) [KHG24480, (2-cyclohexylimino-3,5-dimethyl-1,3-thiazolidine-4-yl)-N-(4-chlorophenyl)-acetamide] | 51.6% | 262 to 264 °C | – | – |
| Br.CN1C(=NC2CCCCCC2)SCC1C(=O)NCc1ccccc1C(F)(F)F (stereo not drawn) [KHG24670, (2-cycloheptylimino-3-methyl-1,3-thiazolidine-4-yl)-N-(2-trifluoromethylbenzyl)-carboxamide hydrobromide] | 46.7% | 236.9 °C | – | – |
| CCN1C(=NC2CCCCC2)SCC1CC(=O)Nc1ccc(Oc2ccccc2)cc1.Cl (stereo not drawn) [KHG24276, [2-cyclohexylimino-3-ethyl-1,3-thiazolidine-4-yl]-N-(4-phenoxyphenyl)-acetamide hydrochloride] | 42.8% | 160.3 °C | – | – |
| CCCCN1C(=NC2CCCCC2)SCC1CC(=O)Nc1cc(Cl)cc(Cl)c1.Cl (stereo not drawn) [KHG24416, [2-cyclohexylimino-3-(n-butyl)-1,3-thiazolidine-4-yl]-N-(3,5-dichlorophenyl)-acetamide hydrochloride] | 59.8% | 153 to 154 °C | – | – |
| Cl.O=C(CC1CSC(=NC2CCCCC2)N1C1CC1)Nc1cc(C(F)(F)F)cc(C(F)(F)F)c1 (stereo not drawn) [KHG24267, [2-cyclohexylimino-3-cyclopropyl-1,3-thiazolidine-4-yl]-N-(3,5-ditrifluoromethylphenyl)-acetamide hydrochloride] | 71% | 197.3 °C | – | – |
| COc1ccc(N=C2SCC(CC(=O)Nc3ccc(Cl)cc3)N2C)cc1.Cl (stereo not drawn) [KHG21648, [2-(4-methoxyphenylimino)-3-methyl-1,3-thiazolidine-4-yl]-N-(4-chlorophenyl)-acetamide hydrochloride] | – | 250 to 253 °C | 26.2% | – |
| CN1C(=NCC2CCCCC2)SCC1CC(=O)Nc1cc(C(F)(F)F)cc(C(F)(F)F)c1.Cl (stereo not drawn) [KHG24218, (2-cyclohexylmethylimino-3-methyl-1,3-thiazolidine-4-yl)-N-(3,5-ditrifluoromethylphenyl)-acetamide hydrochloride] | 52.8% | 119.6 °C | – | – |
| CN1C(=NC2CCCCCC2)SCC1C(=O)NCc1ccccc1C(F)(F)F (stereo not drawn) [KHG24671, (2-cycloheptylimino-3-methyl-1,3-thiazolidine-4-yl)-N-(2-trifluoromethylbenzyl)-carboxamide] | – | 223 °C | – | 47.2% |
| CN1C(=NC23CC4CC(CC(C4)C2)C3)SCC1CC(=O)Nc1cc(Cl)cc(Cl)c1.Cl (stereo not drawn) [KHG24417, [2-(1-adamantyl)imino-3-methyl-1,3-thiazolidine-4-yl]-N-(3,5-dichlorophenyl)-acetamide hydrochloride] | 59.1% | 238 to 240 °C | – | – |
| CC1SC(=NC2CCCCCC2)N(C)C1CC(=O)Nc1ccc(C(C)(C)C)cc1.Cl (stereo not drawn) [KHG24521, (2-cycloheptylimino-3,5-dimethyl-1,3-thiazolidine-4-yl)-N-(4-t-butylphenyl)-acetamide hydrochloride] | 54.3% | 239 to 241 °C | – | – |
| CCN1C(=NC2CCCCC2)SCC1CC(=O)Nc1ccc(C)cc1Cl.Cl (stereo not drawn) [KHG24420, (2-cyclohexylimino-3-ethyl-1,3-thiazolidine-4-yl)-N-(2-chloro-4-methylphenyl)-acetamide hydrochloride] | 58.5% | 115 °C | – | – |
| CN1C(=NCC2CCCCC2)SCC1CC(=O)Nc1ccc(Cl)cc1.Cl (stereo not drawn) [KHG24230, (2-cyclohexylmethylimino-3-methyl-1,3-thiazolidine-4-yl)-N-(4-chlorophenyl)-acetamide hydrochloride] | 33% | 177.1 °C | – | – |
| CN1C(=Nc2ccc(Oc3ccccc3)cc2)SCC1CC(=O)Nc1ccc(Cl)cc1.Cl (stereo not drawn) [KHG21650, [2-(4-phenoxyphenylimino)-3-methyl-1,3-thiazolidine-4-yl]-N-(4-chlorophenyl)-acetamide hydrochloride] | – | 238 to 242 °C | 2.59% | – |
| CCCCc1ccc(NC(=O)CC2C(C)SC(=NC3CCCCCC3)N2C)cc1.Cl (stereo not drawn) [KHG24516, (2-cycloheptylimino-3,5-dimethyl-1,3-thiazolidine-4-yl)-N-(4-n-butylphenyl)-acetamide hydrochloride] | 54.6% | 247 to 249 °C | – | – |
| CCCCN1C(=NC23CC4CC(CC(C4)C2)C3)SCC1CC(=O)Nc1ccc(Br)cc1.Cl (stereo not drawn) [KHG24784, [2-(1-adamantylimino)-3-(n-butyl)-1,3-thiazolidine-4-yl]-N-(4-bromophenyl)-acetamide hydrochloride] | 36.6% | 172 °C | – | – |
| Cc1cc(Cl)c(NC(=O)CC2CSC(=NC3CCCCC3)N2C)cc1Cl.Cl (stereo not drawn) [KHG24071, (2-cyclohexylimino-3-methyl-1,3-thiazolidine-4-yl)-N-(2,5-dichloro-4-methylphenyl)-acetamide hydrochloride] | 52.1% | 146 °C | – | – |
| CCCCN1C(=NC2CCCCC2)SCC1CC(=O)Nc1ccc(CC)cc1.Cl (stereo not drawn) [KHG24286, [2-cyclohexylimino-3-(n-butyl)-1,3-thiazolidine-4-yl]-N-(4-ethylphenyl)-acetamide hydrochloride] | 55.2% | 221.2 °C | – | – |
| CC(C)c1ccc(NC(=O)CC2CSC(=NC3CCCC3)N2C)cc1.Cl (stereo not drawn) [KHG24115, (2-cyclopentylimino-3-methyl-1,3-thiazolidine-4-yl)-N-(4-isopropylphenyl)-acetamide hydrochloride] | 49.9% | 213 to 215.5 °C | – | – |
| CCCCN1C(=NC2CCCCC2)SCC1CC(=O)Nc1ccc(C(C)C)cc1.Cl (stereo not drawn) [KHG24283, [2-cyclohexylimino-3-(n-butyl)-1,3-thiazolidine-4-yl]-N-(4-isopropylphenyl)-acetamide hydrochloride] | 51.2% | 215.6 °C | – | – |
| CN1C(=Nc2cccc(F)c2)SCC1CC(=O)Nc1ccc(Cl)cc1F.Cl (stereo not drawn) [KHG32076, [2-(3-fluorophenylimino)-3-methyl-1,3-thiazolidine-4-yl]-N-(4-chloro-2-fluorophenyl)-acetamide hydrochloride] | – | 229 to 231 °C | 20.5% | – |

Source: patent publication US7998989B2, “2-Imino-1,3-thiazoline-based compounds and T-type calcium channel inhibitors containing the same” (Korea Institute of Science and Technology, priority 2007, dated 2011)
